The record followed here is PMC8128204, “Development of 3-methyl/3-(morpholinomethyl)benzofuran derivatives as novel antitumor agents towards non-small cell lung cancer cells” (Journal of Enzyme Inhibition and Medicinal Chemistry, 2021).

In data set [1] the test system is M. tuberculosis ATCC 27294. Kind of data set: Microplate Alamar Blue Assay, anti-tubercular activity. Type of data set: cell-based. The conditions noted are these: MABA, 7 days. On the technique in general: Alamar Blue is a resazurin reagent that responds to reducing activity.
A further data set concerns the target VEGFR-2 (Homo sapiens, UniProt P35968). Put plainly: VEGFR-2 kinase inhibitory assay (VEGFR2(KDR) Kinase Assay Kit).
The subject of data set [2] is A549 cells. Kind of data set: Cell cycle analysis (PI flow cytometry), A549. The conditions noted are these: A549, 24 h at IC50 concentration. The class given is cell-based, human. How it is done: (§1) Lung cancer A549 cells were treated with benzofuran 4b, whereas NCI-H23 cells were treated […]
(§2) twice with ice-cold phosphate buffered saline (PBS). Subsequently, the treated cells were collected by centrifugation, fixed in ice-cold 70% (v/v) ethanol, washed with PBS, re-suspended with 100 μg/mL RNase, stained with 40 μg/mL PI, and analyzed by flow cytometry using FACS Calibur (Becton Dickinson, BD, Franklin Lakes, NJ, USA). The cell cycle distributions were calculated using CellQuest software 5.1 (Becton Dickinson). […]

For the next data set, the system named is WI-38 cell line. Put plainly: Cytotoxic activity against non-tumorigenic WI-38 cell line. The class given is cell-based, human. The following applies: for Mean tumour selectivity: S.I. WI-38/A549 and NCI-H23; for IC50: non-tumorigenic human lung WI-38 cell line. An excerpt: Antiproliferative agents are designed to inhibit the cellular growth of tumour cells selectively, while sparing the normal cells.

The test system of data set [3] is A549 cells. Kind of data set: MTT anti-proliferative assay, A549. Type of data set: cell-based, human. The conditions noted are these: mean ± SD of three experiments. How it is done: (§3) The antiproliferative activity of the synthesised derivatives of the 3-methylbenzofuran series (4a–d, 6a–c, 8a–c and 11) and the 3-(morpholinomethyl)benzofuran series (15a–c, 16a–b, 17a–b and 18) was evaluated against non-small cell lung carcinoma (NSCLC) A549 and NCI-H23 cell lines, following the procedures of the MTT assay. […] 1. Anti-proliferative action toward human […] cell lines […]
(§4) The two examined human non-small cell lung carcinoma cell lines (A549 and NCI-H23) have been obtained from American Type Culture Collection (ATCC). The cells were maintained in Dulbecco's modified Eagle's medium (DMEM) supplemented with 10% heat inactivated fetal calf serum (GIBCO), penicillin (100 U/ml) and streptomycin (100 µg/ml) at 37 °C in humidified atmosphere containing 5% CO2. […]
(§5) flask in 5 ml of culture medium. The anti-proliferative activity of the tested 3-methylbenzofurans (4a-d, 6a-c, 8a-c and 11) and 3-(morpholinomethyl)benzofurans (15a-c, 16a-b, 17a-b and 18) measured in vitro using the MTT assay. Briefly, cells were plated out in 96-well microtiter plate (0.5X10^4 cells/well) and incubated for 24 h before treatment with the tested benzofurans to allow cells to attach to the bottom of the well of the plate. Tested benzofuranswere were dissolved in DMSO at 1 mg/ml immediately before use and diluted to the appropriate volume just before addition to the cell culture. […]
(§6) added to the cells (three wells were prepared for each individual dose). Cells were incubated with […]
(§7) At the end of exposure, MTT […]
(§8) solution in PBS (5 mg/ml) was then added to all well including no cell blank and left to incubate for 90 min. The formation of formazan crystals were visually confirmed using phase contract microscopy. DMSO (100 µl/well) was added to dissolve the formazan crystals with shaking for 10 min after which the absorbance was read at 590 nm against no cell blanks on a microplate reader.
(§9) The relation between percent of surviving fraction and log drug concentration is plotted to get the survival curve for each cell line.

Data set [4] deals with A549 cells. Put plainly: Annexin V-FITC/PI apoptosis assay, A549. The conditions noted are these: A549, at IC50 concentration; control 1.37%. Type of data set: cell-based, human. How it is done: (§10) The apoptotic effect of the three benzofurans (4b, 15a and 16a) was evaluated using Annexin VFITC/PI (AV/PI) dual staining assay to validate if their observed cytotoxic effect is due to non-specific necrosis or physiological apoptosis. […] Moreover, the apoptotic effects of 3-(morpholinomethyl)benzofuran derivatives 15a and 16a were evaluated in NCI-H23 cancer cell line.
as §1
(§11) twice with ice-cold phosphate buffered saline (PBS). Subsequently, the treated cells were collected by centrifugation, fixed in ice-cold 70% (v/v) ethanol, washed with PBS, re-suspended with 100 μg/mL RNase, stained with 40 μg/mL PI, and analyzed by flow cytometry using FACS Calibur (Becton Dickinson, BD, Franklin Lakes, NJ, USA). The cell cycle distributions were calculated using CellQuest software 5.1 (Becton Dickinson).
(§12) 3. Annexin V-FITC Apoptosis Assay […]
(§13) Cells were then rinsed in binding buffer and resuspended in 150 μL of binding buffer with the addition of 1 μL of DAPI (1 μg/μL in PBS). Cells were then analyzed using the flow cytometer BD FACS Canto II and the results were interpreted with FlowJo7.6.4 software (Tree Star, Ashland, 4. VEGFR-2 Kinase Inhibitory Activity […]

Data set [5] has as its system NCI-H23 cells. Put plainly: MTT anti-proliferative assay, NCI-H23. The following applies: mean ± SD of three experiments. Type of data set: cell-based, human. How it is done:
as §3, §4, §5, §6, §7, §8, §9
(In general: Formazan colour is commonly taken as a measure of viable cells.)

The test system of data set [6] is NCI-H23 cells. Put plainly: Cell cycle analysis (PI flow cytometry), NCI-H23. The class given is cell-based, human. The conditions noted are these: NCI-H23, 24 h at IC50 concentration. On the procedure:
as §1, §2
(In general: In flow cytometry, cells or beads pass a laser one at a time.)

The subject of data set [7] is NCI-H23 cells. Put plainly: Annexin V-FITC/PI apoptosis assay, NCI-H23. The following applies: NCI-H23, at IC50 concentration; control 2.09%. The class given is cell-based, human. How it is done:
as §10, §1, §11, §12, §13

Setting [8] is: Mycobacterium tuberculosis, ATCC27294, 168 h, read-out: MIC.

In brackets after ≈: the same amount, converted by molar mass. Read-outs that look alike come from different tables or passages of the source.

Chain of VEGFR-2 (P35968 20-1356): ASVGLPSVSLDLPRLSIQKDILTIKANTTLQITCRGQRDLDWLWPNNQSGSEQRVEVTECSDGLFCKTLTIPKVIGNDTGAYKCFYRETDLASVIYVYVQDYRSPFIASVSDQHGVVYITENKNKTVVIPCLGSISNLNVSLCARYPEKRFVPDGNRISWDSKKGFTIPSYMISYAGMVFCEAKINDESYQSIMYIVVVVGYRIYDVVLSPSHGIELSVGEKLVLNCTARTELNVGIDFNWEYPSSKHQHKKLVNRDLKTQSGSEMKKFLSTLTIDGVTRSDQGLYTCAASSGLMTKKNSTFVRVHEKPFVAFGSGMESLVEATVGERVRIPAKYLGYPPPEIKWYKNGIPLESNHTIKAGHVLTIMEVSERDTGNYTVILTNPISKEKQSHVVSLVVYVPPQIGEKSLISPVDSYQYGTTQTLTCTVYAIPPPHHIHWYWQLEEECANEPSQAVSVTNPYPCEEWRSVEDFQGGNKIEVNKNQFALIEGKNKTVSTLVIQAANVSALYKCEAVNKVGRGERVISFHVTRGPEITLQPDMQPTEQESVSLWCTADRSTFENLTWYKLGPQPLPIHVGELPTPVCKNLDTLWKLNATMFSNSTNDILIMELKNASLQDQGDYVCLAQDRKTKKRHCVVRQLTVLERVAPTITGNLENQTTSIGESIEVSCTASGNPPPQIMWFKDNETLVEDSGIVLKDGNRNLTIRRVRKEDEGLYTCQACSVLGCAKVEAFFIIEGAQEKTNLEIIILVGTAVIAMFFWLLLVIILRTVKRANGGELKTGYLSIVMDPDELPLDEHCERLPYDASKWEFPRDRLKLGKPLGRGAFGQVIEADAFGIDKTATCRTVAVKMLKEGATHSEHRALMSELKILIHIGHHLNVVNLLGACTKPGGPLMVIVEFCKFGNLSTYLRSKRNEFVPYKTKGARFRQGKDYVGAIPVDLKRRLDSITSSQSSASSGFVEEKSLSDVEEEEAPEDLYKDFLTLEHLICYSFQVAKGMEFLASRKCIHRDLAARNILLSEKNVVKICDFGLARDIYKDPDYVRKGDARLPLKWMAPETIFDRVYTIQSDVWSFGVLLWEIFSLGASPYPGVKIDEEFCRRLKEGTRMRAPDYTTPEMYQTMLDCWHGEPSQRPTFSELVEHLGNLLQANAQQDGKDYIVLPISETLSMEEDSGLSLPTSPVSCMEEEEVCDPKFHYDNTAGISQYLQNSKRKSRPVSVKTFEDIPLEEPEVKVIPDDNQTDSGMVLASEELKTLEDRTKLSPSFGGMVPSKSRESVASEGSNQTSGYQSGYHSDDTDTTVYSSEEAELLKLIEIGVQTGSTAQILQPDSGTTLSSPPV
Description for VEGFR-2: CA, USA), according to the manufacturer’s instructions.

Compound `COc1ccc(NC(=S)NNC(=O)c2oc3ccccc3c2C)cc1` [Compound 4b, N-(4-Methoxyphenyl)-2-(3-methylbenzofuran-2-carbonyl)hydrazine-1-carbothioamide] showed a melting point of 190 to 193 °C. In data set [1], this compound returned an MIC of 500 µg/mL (≈ 1410 µM). Further, the minimal inhibitory concentration (MIC) in [1] (setting [8]) is 250 µg/mL (≈ 703 µM). At VEGFR-2, this compound showed an IC50 of 0.078 ± 0.0046 µM. The “S phase, fold vs control” value in the data set on A549 cells [2] (attenuated) is 0.46 fold. In the data set on A549 cells [2] (augmentation), the “G2/M phase cell population, fold vs control” value is 2.67 fold and the “sub-G1 phase cell population, fold vs control” value came to 21.76 fold. The “G0–G1 phase, fold vs control” value in the data set on A549 cells [2] (reduced) was determined as 0.67 fold. Also, in the data set with WI-38 cell line, the Mean tumour selectivity is reported as 5.3 and the IC50 was found to be 19.5 ± 1.18 µM. For the same compound, in the data set on A549 cells [3] (Homo sapiens, A549, 48 h), the IC50 was found to be 1.48 ± 0.08 µM. Besides, the “apoptosis (total)” value with A549 cells [4] is 42.05%. In addition, the IC50 in the data set with NCI-H23 cells [5] (Homo sapiens, NCI-H23, 48 h) turned out to be 5.9 ± 0.29 µM.
In the case of `COc1cccc(NC(=S)NNC(=O)c2oc3ccccc3c2CN2CCOCC2)c1` [Compound 15a, N-(3-Methoxyphenyl)-2-(3-(morpholinomethyl)benzofuran-2-carbonyl)hydrazine-1-carbothioamide], the melting point was in the range of 190 to 192 °C. The MIC in data set [1] (setting [8]) was 62.5 µg/mL (≈ 142 µM). In addition, the “S phase, fold vs control” value in the data set with NCI-H23 cells [6] (attenuated) came to 0.50 fold. Further, in the data set with NCI-H23 cells [6] (augmentation), the “G2/M phase cell population, fold vs control” value is 5.33 fold and the “sub-G1 phase cell population, fold vs control” value was found to be 13.13 fold. Further, the “G0–G1 phase, fold vs control” value in the data set with NCI-H23 cells [6] (reduced) is on record as 0.56 fold. In addition, the total apoptosis with NCI-H23 cells [7] is on record as 34.59%. The same compound gave an IC50 against VEGFR-2 of 0.133 ± 0.0078 µM. Besides, in the data set on WI-38 cell line, the Mean tumour selectivity was found to be 8.4 and the IC50 came out at 32.8 ± 1.98 µM. In the data set on A549 cells [3] (48 h), the midpoint of inhibition, the IC50, lay at 5.27 ± 0.29 µM. The compound further returned an IC50 in the data set on A549 cells [3] (Homo sapiens, A549, 48 h) of 5.27 ± 0.29 µM. Moreover, in the data set with NCI-H23 cells [5] (48 h), the midpoint of inhibition, the IC50, lay at 2.52 ± 0.13 µM. Moreover, in the data set with NCI-H23 cells [5] (Homo sapiens, NCI-H23, 48 h), the IC50 was determined as 2.52 ± 0.13 µM.

Broadly, the MIC is the smallest concentration in the dilution series that meets the test's criterion for growth inhibition. For orientation: melting point means the temperature of the solid-liquid transition. For orientation: IC50 means the point on the concentration scale where inhibition reaches its midpoint. Higher therefore signals lower potency.
